In general, IC50 refers to the concentration needed to halve the response being measured. Usually Ki stands for the equilibrium dissociation constant of an inhibitor or competing ligand from its target. A low value points to higher affinity. Usually pKa stands for the negative logarithm of the acid dissociation constant. A lower pKa goes with a stronger acid or weaker base. In general, IC90 refers to the concentration at which the effect reaches the 90% level. Broadly, the inhibition is how much of the control response was suppressed.

The results in this text go back to ChEMBL document CHEMBL2203010, “The discovery of tropane-derived CCR5 receptor antagonists” (Chem Biol Drug Des, 2006).

Data set [1] deals with T1, Voltage-gated inwardly rectifying potassium channel KCNH2 (Homo sapiens, UniProt Q12809). Briefly: Inhibition of human ERG.
The target in data set [2] is C-C chemokine receptor type 5 (Homo sapiens, UniProt P51681). Description: Displacement of [125I]MIP-1beta from CCR5 receptor. (In general: In a radioligand displacement assay an active substance lowers the binding of a labelled ligand.)
Data set [3] concerns the target T1, Voltage-gated inwardly rectifying potassium channel KCNH2. Briefly: Displacement of [3H]dofetilide from human ERG.
The nature of data set [4]: Dissociation constant, pKa of the compound. Type of data set: physicochemical.
Data set [5] has as its system Human immunodeficiency virus 1. Description: Antiviral activity against HIV1 BaL infected in peripheral blood lymphocytes assessed as inhibition of viral replication. The note with it: Human immunodeficiency virus 1, BaL. Type of data set: functional.
The target in the next data set is hERG (KCNH2) (Homo sapiens, UniProt Q12809). Briefly: Inhibition of human ERG at 1 uM.
Data set [6] relates to Human immunodeficiency virus 1. Description: Antiviral activity against CCR5-tropic HIV1 clade B infected in peripheral blood lymphocytes assessed as inhibition of viral replication. Type of data set: functional, organism-based. As to conditions: Human immunodeficiency virus 1, clade B; call rule not given here.
Data set [7] concerns Human immunodeficiency virus 1. Briefly: Antiviral activity against CCR5-tropic HIV1 clade A infected in peripheral blood lymphocytes assessed as inhibition of viral replication. Type of data set: functional, organism-based. As to conditions: Human immunodeficiency virus 1, clade A.

A value given as a limit tells only on which side of the number the result lay.

T1 sequence (Q12809 whole entry): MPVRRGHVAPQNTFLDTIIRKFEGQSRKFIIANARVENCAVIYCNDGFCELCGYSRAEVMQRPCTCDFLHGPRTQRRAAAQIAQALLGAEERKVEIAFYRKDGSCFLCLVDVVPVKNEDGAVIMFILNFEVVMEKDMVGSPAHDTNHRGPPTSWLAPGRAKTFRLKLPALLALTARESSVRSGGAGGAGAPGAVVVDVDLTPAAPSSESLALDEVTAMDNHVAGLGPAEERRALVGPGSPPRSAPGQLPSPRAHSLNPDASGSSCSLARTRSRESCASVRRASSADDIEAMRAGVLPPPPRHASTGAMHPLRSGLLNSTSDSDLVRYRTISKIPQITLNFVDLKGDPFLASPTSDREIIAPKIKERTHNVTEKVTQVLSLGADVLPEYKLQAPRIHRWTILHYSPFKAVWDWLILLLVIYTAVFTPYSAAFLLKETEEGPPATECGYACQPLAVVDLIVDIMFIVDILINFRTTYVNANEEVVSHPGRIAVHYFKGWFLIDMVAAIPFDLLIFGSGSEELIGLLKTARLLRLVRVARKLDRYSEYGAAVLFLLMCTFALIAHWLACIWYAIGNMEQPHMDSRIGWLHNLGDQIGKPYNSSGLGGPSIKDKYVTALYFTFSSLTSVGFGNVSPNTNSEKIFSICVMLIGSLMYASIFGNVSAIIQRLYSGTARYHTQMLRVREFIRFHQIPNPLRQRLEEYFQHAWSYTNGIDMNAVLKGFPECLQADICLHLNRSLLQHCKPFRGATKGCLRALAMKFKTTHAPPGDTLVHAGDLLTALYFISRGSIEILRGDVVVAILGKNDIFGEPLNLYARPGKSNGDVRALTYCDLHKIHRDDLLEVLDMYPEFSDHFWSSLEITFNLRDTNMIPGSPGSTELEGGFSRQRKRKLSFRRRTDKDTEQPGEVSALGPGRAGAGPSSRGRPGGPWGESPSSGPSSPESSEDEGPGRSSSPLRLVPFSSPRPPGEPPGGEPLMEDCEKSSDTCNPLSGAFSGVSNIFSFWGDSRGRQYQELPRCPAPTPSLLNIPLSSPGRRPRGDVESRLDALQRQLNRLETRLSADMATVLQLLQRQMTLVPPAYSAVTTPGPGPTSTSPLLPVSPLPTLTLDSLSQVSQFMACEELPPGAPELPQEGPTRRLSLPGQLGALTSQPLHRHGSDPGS
Sequence of C-C chemokine receptor type 5 (P51681 whole entry): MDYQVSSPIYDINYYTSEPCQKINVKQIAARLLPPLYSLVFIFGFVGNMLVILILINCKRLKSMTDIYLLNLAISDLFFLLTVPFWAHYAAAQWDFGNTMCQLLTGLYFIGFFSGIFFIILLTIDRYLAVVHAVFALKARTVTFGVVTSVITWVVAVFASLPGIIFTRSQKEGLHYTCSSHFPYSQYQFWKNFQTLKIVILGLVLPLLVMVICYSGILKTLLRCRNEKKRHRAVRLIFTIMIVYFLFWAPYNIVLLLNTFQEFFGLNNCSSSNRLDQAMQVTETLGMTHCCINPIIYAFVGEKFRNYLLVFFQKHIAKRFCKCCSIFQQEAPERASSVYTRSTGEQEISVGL
Sequence of hERG (KCNH2) (Q12809 whole entry): as the sequence (Q12809 whole entry) above

Take `Cc1nc2ccccc2n1[C@@H]1C[C@H]2COC[C@@H](C1)N2CC[C@H](NC(=O)C1CCC1)c1ccccc1`: the “inhibition (INH)” value in data set [1] is on record as “Active”. Also, in data set [2], the IC50 is 9 nM. For the same molecule, the Ki in data set [3] amounted to 42 nM. This molecule displayed a pKa in data set [4] of 6.
`Cc1nc2ccccc2n1[C@@H]1C[C@@H](C)N(CC[C@H](NC(=O)C2CCC2)c2ccccc2)[C@@H](C)C1`: the IC90 in data set [5] worked out at 53 nM. In addition, in data set [1], the “inhibition (INH)” value is listed as “Active”. In addition, in data set [2], the IC50 is 8 nM.
As to `Cc1nc2ccccc2n1C1CCN(CC[C@H](NC(=O)C2CCC2)c2ccccc2)CC1`, in data set [5], the IC90 stood at 73 nM. This molecule gave an IC50 in data set [2] of 20 nM.
On to `Cc1nc2ccccc2n1[C@@H]1C[C@H]2CC[C@@H](C1)N2CC[C@H](NC(=O)C1CCC1)c1ccccc1`, for which the IC90 in data set [5] was 13 nM. In addition, the “inhibition (INH)” value in data set [1] is reported as “Active”.
In the case of `Cc1nc2ccccc2n1[C@H]1C[C@H]2CC[C@@H](C1)N2CC[C@H](NC(=O)C1CCC1)c1ccccc1`, the IC90 in data set [5] amounted to 3 nM. Also, the “inhibition (INH)” value in data set [1] is “Active”. Also, the inhibition at 1 µM against hERG (KCNH2) was 99%. The IC50 in data set [6] and in data set [7] was 0.9 nM each time. Besides, in data set [4], the pKa turned out to be 7.8.
For `Cc1nc2ccccc2n1C1CN(CC[C@H](NC(=O)C2CCC2)c2ccccc2)C1`, the “inhibition (INH)” value in data set [1] was “Active”. The same molecule had an IC50 in data set [2] above 1000 nM.
In the case of `Cc1nc2ccccc2n1C1[C@H]2CN(CC[C@H](NC(=O)C3CCC3)c3ccccc3)C[C@@H]12` (some centres undefined), in data set [5], the IC90 was above 1000 nM. Further, the “inhibition (INH)” value in data set [1] is “Active”. In data set [2], this molecule displayed an IC50 of 17 nM.
In the same order, the values of `Cc1nc2ccccc2n1C1(C)CCN(CC[C@H](NC(=O)C2CCC2)c2ccccc2)CC1` are 140 nM, “Active” and 1.2 nM.
`Cc1nc2ccccc2n1[C@@H]1C[C@H]2CSC[C@@H](C1)N2CC[C@H](NC(=O)C1CCC1)c1ccccc1`: the “inhibition (INH)” value in data set [1] is reported as “Active”. This molecule gave an IC50 in data set [2] of 21.5 nM.
Consider `Cc1nc2ccccc2n1[C@H]1C[C@H]2COC[C@@H](C1)N2CC[C@H](NC(=O)C1CCC1)c1ccccc1`, for which, in data set [1], the “inhibition (INH)” value is given as “Active”. Also, in data set [2], the IC50 came out at 39.7 nM.
